Test results: PMC12281424, “A Rac-specific competitive inhibitor of guanine nucleotide binding reduces metastasis in triple-negative breast cancer” (Cell Reports Medicine, 2025)

Tests used:
[1] = system: MDA-MB-468 Luc cells; test: Orthotopic breast cancer (TNBC xenograft) model; format: in vivo, mouse; conditions: 25 mg/kg/day i.p.
Procedure: The anti-metastatic potential of A41 was assessed in a TNBC xenograft model by orthotopic injection of MDA-MB-468 Luc cells into the mammary fat pad of […] Nordic Medical Research Institute (NMRI) nude mice randomized in 2 groups. The tumor grows gradually over time. At the 50th day post grafting, when a volume of ∼1,000 mm^3 was reached, the tumor was resected, which corresponded to tumor mass of approximately 0.6 g (Figure S8A). Mice were then treated with A41 (25 mg/kg/day, intraperitoneally; group 2) or vehicle for 4 weeks (group 1).
Figure 6 A41 decreases metastasis of TNBC cells in vivo (A) Representative images of luciferase bioluminescence intensities (BLI) in whole body, legs, and ovaries/uterus 4 weeks after resection of MD1-MB-468 Luc tumor in NMRI nude mice not treated (control) and treated with A41 (25 mg/kg/day, intraperitoneally for 4 weeks). (B) Metastasis frequency quantification based on ex vivo BLI measurements in indicated organs from control (black bars) and A41-treated mice 4 weeks after tumor resection (white bars) (N = 10–15 mice; ∗p < 0.05 vs. controls). (C) BLI quantification in legs and ovaries/uterus from control (black squares) and A41-treated (white squares) NMRI nude mice 4 weeks after tumor resection (N = 10–15 mice; ∗p < 0.05 vs. controls). (D) Cumulative proportion of immunocompetent control (red) and A41-treated mice (blue) displaying regrowth of the primary tumor after its resection. (E) Metastasis frequency quantified from ex vivo BLI measurements in leg bones, lungs, kidneys, and ovaries/uterus from immunocompetent control (black bar) and A41-treated (white bar) mice (N = 10 mice; ∗p < 0.05 vs. control). (F) Survival curve of immunocompetent control (red) and A41-treated mice (blue) after primary tumor resection (day 0).
Orthotopic cell xenograft was performed by injection of 4 million MDA-MB-468Luc cells in the fourth fat pad from 5-week-old NMRI nude mice. Primary tumour was allowed to develop during 5 weeks and tumour growth was assessed by tumour volume measurement using a caliper. Primary tumor was then removed by surgical exeresis and weighed. Treatments began 1 day before exeresis. A41 (25 mg/kg) was administered intraperitoneally on a daily basis during 4 weeks. Mice were weighed 5 times a week and in vivo bioluminescence intensities were measured once a week (Imager PerkinElmer IVIS spectrum bioluminescence imager). At the end of the protocol, mice were sacrificed and ex vivo bioluminescence intensities of indicated organs (legs, ovaries, uterus, lungs and liver) were measured within 15 min of D-luciferin intraperitoneal injection (150 mg kg−1). Photons emitted by cancer cells were counted by bioluminescent imaging and expressed in counts per minute (c.p.m.).

[2] = Ames fluctuation test (2nd group); format: cell-based
From the text: Data S3. Ames-fluctuation assay-A41.
Test Concentration Count Positive Significance Fisher Exact Test
(# of wells) (- to +++) (p-value)
Ames fluctuation test (TA100 + S9

[3] = target: A-Raf(h) (Homo sapiens, UniProt P10398); test: Kinase Profiler; format: biochemical
Procedure: (§1) Blood cell counts, kinase profiler, safety screen, bacterial cytotoxicity, Ames, micronucleus assays were performed by the company Eurofins (France). The kinase profiler was performed by the company Eurofins (Discovery, Panlab and Cerep).

[4] = target: BrSK2(h) (Homo sapiens, UniProt Q8IWQ3); test: Kinase Profiler; format: biochemical
Procedure: as §1

[5] = target: CaMKK2(h) (Homo sapiens, UniProt Q96RR4); test: Kinase Profiler; format: biochemical
Chain of CaMKK2(h) (Q96RR4 whole entry): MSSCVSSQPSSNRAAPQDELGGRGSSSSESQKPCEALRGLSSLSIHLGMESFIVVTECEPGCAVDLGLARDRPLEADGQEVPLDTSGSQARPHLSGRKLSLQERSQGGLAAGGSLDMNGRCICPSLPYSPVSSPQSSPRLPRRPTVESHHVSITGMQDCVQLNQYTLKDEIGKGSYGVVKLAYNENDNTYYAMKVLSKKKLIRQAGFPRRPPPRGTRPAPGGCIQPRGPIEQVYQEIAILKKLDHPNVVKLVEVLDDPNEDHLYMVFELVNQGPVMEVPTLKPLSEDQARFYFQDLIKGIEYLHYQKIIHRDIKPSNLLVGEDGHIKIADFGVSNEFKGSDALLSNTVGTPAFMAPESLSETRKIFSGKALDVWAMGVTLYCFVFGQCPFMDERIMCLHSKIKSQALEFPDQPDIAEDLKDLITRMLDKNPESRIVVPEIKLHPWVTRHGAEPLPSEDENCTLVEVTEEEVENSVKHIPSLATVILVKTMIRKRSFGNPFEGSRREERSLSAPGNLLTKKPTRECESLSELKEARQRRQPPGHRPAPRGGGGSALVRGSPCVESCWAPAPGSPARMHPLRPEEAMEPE
Procedure: (§2) The kinase profiler was performed by the company Eurofins (Discovery, Panlab and Cerep).

[6] = target: CDK5/p25(h) (Homo sapiens, UniProt Q00535); test: Kinase Profiler; format: biochemical
Procedure: as §1

[7] = target: CK2(h) (Homo sapiens, UniProt P68400); test: Kinase Profiler; format: biochemical
Procedure: as §2

[8] = target: DAPK2(h) (Homo sapiens, UniProt Q9UIK4); test: Kinase Profiler; format: biochemical
Chain of DAPK2(h) (Q9UIK4 whole entry): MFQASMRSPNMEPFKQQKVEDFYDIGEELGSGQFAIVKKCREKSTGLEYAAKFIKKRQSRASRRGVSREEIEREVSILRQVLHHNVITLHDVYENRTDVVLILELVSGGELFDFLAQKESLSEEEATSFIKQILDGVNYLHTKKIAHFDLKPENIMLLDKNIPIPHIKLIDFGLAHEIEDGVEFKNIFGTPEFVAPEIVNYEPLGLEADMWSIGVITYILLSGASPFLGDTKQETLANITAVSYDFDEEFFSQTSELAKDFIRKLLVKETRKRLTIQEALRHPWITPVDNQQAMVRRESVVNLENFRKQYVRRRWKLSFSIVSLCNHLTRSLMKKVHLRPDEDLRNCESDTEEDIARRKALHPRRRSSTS
Procedure: as §1

[9] = target: EphB3(h) (Homo sapiens, UniProt P54753); test: Kinase Profiler; format: biochemical
Chain of EphB3(h) (P54753 34-998): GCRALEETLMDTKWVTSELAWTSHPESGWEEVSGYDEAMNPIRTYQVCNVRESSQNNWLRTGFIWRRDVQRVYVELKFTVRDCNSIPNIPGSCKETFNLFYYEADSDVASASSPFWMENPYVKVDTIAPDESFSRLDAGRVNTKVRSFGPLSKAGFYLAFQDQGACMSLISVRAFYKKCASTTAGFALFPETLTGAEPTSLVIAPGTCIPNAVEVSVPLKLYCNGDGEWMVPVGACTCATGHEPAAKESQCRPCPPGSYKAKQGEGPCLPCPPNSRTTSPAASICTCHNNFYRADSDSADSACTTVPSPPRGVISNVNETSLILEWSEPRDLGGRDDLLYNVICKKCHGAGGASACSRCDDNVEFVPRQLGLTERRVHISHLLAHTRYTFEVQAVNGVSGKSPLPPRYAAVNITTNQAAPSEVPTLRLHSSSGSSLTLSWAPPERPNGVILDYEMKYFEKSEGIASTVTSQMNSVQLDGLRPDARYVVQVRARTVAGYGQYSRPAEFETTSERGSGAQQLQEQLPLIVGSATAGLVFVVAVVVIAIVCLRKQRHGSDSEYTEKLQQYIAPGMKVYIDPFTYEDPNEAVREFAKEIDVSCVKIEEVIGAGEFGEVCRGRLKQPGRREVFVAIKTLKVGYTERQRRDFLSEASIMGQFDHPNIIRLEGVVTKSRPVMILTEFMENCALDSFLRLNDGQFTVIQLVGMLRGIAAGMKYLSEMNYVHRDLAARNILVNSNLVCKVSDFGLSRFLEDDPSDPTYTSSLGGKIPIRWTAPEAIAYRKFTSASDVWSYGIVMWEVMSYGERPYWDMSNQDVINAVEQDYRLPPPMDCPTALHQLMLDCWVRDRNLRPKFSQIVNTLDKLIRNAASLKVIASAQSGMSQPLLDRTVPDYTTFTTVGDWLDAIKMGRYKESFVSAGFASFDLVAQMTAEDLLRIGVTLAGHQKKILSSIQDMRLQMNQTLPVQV
Procedure: as §1

[10] = target: Fes(h) (Homo sapiens, UniProt P07332); test: Kinase Profiler; format: biochemical
Chain of Fes(h) (P07332 whole entry): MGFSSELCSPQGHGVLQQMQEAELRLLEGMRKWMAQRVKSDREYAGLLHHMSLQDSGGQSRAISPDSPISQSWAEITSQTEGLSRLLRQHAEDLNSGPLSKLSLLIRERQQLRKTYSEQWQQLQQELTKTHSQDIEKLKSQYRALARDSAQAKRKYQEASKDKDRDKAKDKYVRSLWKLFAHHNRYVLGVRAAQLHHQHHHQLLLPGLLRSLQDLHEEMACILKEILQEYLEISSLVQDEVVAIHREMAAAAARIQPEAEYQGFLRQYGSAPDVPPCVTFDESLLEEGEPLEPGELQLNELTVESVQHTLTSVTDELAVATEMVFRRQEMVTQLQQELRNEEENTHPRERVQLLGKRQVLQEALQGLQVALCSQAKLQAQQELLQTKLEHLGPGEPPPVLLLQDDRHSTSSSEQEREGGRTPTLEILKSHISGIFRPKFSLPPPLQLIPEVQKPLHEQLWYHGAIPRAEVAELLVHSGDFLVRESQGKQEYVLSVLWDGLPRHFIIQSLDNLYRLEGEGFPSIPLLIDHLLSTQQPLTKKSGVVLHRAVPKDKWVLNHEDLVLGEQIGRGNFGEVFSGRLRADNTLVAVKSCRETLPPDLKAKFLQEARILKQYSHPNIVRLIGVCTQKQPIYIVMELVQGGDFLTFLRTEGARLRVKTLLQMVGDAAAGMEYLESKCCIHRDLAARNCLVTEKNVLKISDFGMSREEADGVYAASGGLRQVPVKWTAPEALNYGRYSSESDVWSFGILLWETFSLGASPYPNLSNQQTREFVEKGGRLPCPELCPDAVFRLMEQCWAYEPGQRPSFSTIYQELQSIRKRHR
Procedure: as §2

[11] = target: HIPK3(h) (Homo sapiens, UniProt Q9H422); test: Kinase Profiler; format: biochemical
Procedure: as §2

[12] = target: MAPK2(m) (Mus musculus, UniProt P63085); test: Kinase Profiler; format: biochemical
Chain of MAPK2(m) (P63085 2-358 limits assumed): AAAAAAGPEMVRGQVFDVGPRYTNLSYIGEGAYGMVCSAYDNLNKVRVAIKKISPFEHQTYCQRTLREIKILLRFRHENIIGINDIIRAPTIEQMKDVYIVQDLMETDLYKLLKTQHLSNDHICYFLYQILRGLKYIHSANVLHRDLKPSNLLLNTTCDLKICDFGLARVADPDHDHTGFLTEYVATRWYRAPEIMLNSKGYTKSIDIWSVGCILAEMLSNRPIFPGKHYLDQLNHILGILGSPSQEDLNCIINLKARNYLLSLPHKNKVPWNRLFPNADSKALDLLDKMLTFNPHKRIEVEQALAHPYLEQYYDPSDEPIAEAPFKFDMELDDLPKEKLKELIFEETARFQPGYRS
Procedure: as §2

[13] = target: MAPKAP-K3(h) (Homo sapiens, UniProt Q16644); test: Kinase Profiler; format: biochemical
Chain of MAPKAP-K3(h) (Q16644 whole entry): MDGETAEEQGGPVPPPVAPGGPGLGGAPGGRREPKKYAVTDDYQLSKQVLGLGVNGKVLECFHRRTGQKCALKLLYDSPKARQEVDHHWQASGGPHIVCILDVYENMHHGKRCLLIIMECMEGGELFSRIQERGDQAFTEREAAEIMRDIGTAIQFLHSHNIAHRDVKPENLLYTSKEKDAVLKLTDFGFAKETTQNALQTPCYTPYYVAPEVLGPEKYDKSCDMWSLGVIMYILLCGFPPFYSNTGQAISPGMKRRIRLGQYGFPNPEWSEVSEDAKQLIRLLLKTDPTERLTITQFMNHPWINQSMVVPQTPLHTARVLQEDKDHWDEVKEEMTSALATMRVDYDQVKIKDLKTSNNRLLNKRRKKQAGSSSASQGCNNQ
Procedure: as §2

[14] = target: Met(D1246N)(h) (Homo sapiens, UniProt P08581, D1228N); test: Kinase Profiler; format: biochemical
Procedure: as §2

[15] = target: Met(Y1248C)(h) (Homo sapiens, UniProt P08581, Y1230C); test: Kinase Profiler; format: biochemical
Procedure: as §2

[16] = target: MKK6(h) (Homo sapiens, UniProt P52564); test: Kinase Profiler; format: biochemical
Procedure: as §2

[17] = target: PKBγ(h) (Homo sapiens, UniProt Q9Y243); test: Kinase Profiler; format: biochemical
Chain of PKBγ(h) (Q9Y243 whole entry): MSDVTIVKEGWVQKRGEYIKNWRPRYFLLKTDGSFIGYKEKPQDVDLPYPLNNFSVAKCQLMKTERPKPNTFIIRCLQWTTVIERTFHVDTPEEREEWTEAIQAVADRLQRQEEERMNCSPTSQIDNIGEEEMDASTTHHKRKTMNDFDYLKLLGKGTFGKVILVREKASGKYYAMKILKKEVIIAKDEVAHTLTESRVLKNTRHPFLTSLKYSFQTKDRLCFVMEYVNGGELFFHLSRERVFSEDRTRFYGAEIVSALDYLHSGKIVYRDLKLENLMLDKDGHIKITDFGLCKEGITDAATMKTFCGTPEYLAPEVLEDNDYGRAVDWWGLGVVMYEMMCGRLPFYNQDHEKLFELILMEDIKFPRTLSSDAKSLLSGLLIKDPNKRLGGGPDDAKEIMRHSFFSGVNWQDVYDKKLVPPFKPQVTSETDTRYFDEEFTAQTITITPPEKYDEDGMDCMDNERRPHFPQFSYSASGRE
Procedure: as §2

[18] = target: PKCζ(h) (Homo sapiens, UniProt Q05513); test: Kinase Profiler; format: biochemical
Procedure: as §2

[19] = target: PKG1β(h) (Homo sapiens, UniProt Q13976); test: Kinase Profiler; format: biochemical
Procedure: as §2

[20] = target: PTK5(h) (Homo sapiens, UniProt P42685); test: Kinase Profiler; format: biochemical
Chain of PTK5(h) (P42685 whole entry): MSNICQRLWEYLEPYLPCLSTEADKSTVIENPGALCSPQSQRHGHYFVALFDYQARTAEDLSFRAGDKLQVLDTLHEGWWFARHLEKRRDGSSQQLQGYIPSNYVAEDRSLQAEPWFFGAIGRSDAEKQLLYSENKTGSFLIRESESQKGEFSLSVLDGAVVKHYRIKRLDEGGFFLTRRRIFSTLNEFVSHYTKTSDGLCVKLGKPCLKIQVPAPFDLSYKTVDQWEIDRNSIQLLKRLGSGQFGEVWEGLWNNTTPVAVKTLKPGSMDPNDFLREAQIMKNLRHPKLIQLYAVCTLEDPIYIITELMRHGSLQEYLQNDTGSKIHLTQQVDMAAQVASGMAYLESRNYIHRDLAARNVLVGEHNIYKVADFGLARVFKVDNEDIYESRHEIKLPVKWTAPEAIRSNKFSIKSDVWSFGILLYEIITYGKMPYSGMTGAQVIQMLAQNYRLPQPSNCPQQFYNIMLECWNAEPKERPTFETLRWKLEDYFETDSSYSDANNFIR
Procedure: as §2

[21] = target: Ron(h) (Homo sapiens, UniProt Q04912); test: Kinase Profiler; format: biochemical
Procedure: as §1

[22] = target: SAPK2a(h) (Homo sapiens, UniProt Q16539); test: Kinase Profiler; format: biochemical
Procedure: as §2

[23] = target: TGFBR2(h) (Homo sapiens, UniProt P37173); test: Kinase Profiler; format: biochemical
Procedure: as §1

[24] = target: TSSK3(h) (Homo sapiens, UniProt Q96PN8); test: Kinase Profiler; format: biochemical
Chain of TSSK3(h) (Q96PN8 whole entry): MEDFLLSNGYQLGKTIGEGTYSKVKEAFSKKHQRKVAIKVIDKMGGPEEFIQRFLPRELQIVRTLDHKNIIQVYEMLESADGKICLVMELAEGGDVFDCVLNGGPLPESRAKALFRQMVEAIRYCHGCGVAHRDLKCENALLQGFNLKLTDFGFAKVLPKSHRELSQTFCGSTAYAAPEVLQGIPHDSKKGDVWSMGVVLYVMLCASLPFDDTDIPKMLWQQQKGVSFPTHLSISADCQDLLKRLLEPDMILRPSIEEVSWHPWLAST
Procedure: as §2

[25] = target: ULK2(h) (Homo sapiens, UniProt Q8IYT8); test: Kinase Profiler; format: biochemical
Procedure: as §1

COc1ccc(OC)c(NS(=O)(=O)c2ccc(NC(=O)CCSc3ccc(C)cc3)cc2)c1 [Compound A41]
primary tumor regrowth (in vivo BLI) ([1]; 4 weeks after resection): decrease in primary tumor regrowth
ex vivo luminescence intensity of femur, ovaries, and uterus ([1]; 4 weeks post resection): significantly lower in A41-treated than in control mice
metastasis frequency (leg bones, lungs, kidneys, ovaries, uterus; ex vivo BLI) ([1]; 4 weeks post resection): significantly higher frequency in control than in A41-treated mice
weight of the mice ([1]; 4 weeks, vs vehicle): no difference between the two groups
Count Positive (# of wells) ([2]; 1.0E-04 M): 0
Count Positive (# of wells) ([2]; 1.0E-05 M): 1
Count Positive (# of wells) ([2]; 5.0E-05 M): 0
Count Positive (# of wells) ([2]; 5.0E-06 M): 3
Activity(%) [3]: 85%
Activity(%) [4]: 118%
Activity(%) [5]: 110%
Activity(%) [6]: 110%
Activity(%) [7]: 110%
Activity(%) [8]: 99%
Activity(%) [9]: 113%
Activity(%) [10]: 116%
Activity(%) [11]: 95%
Activity(%) [12]: 108%
Activity(%) [13]: 112%
Activity(%) [14]: 119%
Activity(%) [15]: 118%
Activity(%) [16]: 90%
Activity(%) [17]: 98%
Activity(%) [18]: 97%
Activity(%) [19]: 105%
Activity(%) [20]: 113%
Activity(%) [21]: 110%
Activity(%) [22]: 100%
Activity(%) [23]: 99%
Activity(%) [24]: 104%
Activity(%) [25]: 99%
